# Tested on: human T-bet
# Assay: HEKT-bet-luc assay (normalized)
# Assay type: cell-based
# Conditions: Homo sapiens, HEK293, 24 h, normalized HEKT-bet-luc IC50; engineered HEK cells, T-box responsive luciferase reporter, compound 24 hours; normalized to reference ER-819544; read-out: IC50
# Experimental: HEKT-bet-luc assay: This assay measures a T-bet dependent reporter (luciferase) activity in engineered HEK cells that express a human T-bet and a T-box responsive element driving luciferase reporter. HEKT-bet cells were plated at 2×10^4/well in 96-well plate and compound was added into cell culture for 24 hours. Luciferase activity was measured by adding 50 μl of Steady-Glo reagent (Promega) and samples were read in Victor V reader (PerkinElmer). The activity of compound was determined by comparing compound treated samples to non-compound treated vehicle controls. The IC50 values were calculated utilizing a maximum value corresponding to the amount of luciferase in the absence of a test compound and a minimum value corresponding to a test compound value obtained at maximum inhibition.
# Determination of Normalized HEKT-bet IC50 values: Compounds were assayed in microtiter plates. Each plate included a reference compound which was ER-819544. The un-normalized IC50 value for a particular compound was divided by the IC50 value determined for the reference compound in the same microtiter plate to provide a relative potency value. The relative potency value was then multiplied by the established potency of the reference compound to provide the normalized HEKT-bet IC50 value. […] The IC50 values provided herein were obtained using this normalization method.
row,Structure (SMILES),IC50 [nM]
1,COCCN1C(=O)N2Cc3cc(OC)cc(OC)c3C(C)(C)C=C2C12CCN(Cc1cc(OC)cc(OC)c1OC)CC2 [compound 819752],71
2,CCN1C(=O)N2Cc3cc(OC)c(OC)c(OC)c3C(C)C=C2C12CCN(Cc1cccc3cccnc13)CC2 (centres unmarked) [compound 819755],53
3,CCN1C(=O)N2Cc3cc(OC)cc(OC)c3C(C)C=C2C12CCN(Cc1cccc(OC)c1OC)CC2 (centres unmarked) [compound 819767],148
4,CCN1C(=O)N2Cc3cc(OC)cc(OC)c3C(C)C=C2C12CCN(Cc1ccco1)CC2 (centres unmarked) [compound 819768],183
5,CCN1C(=O)N2Cc3cc(OC)cc(OC)c3C(C)C=C2C12CCN(Cc1ccoc1)CC2 (centres unmarked) [compound 819769],190
6,CCN1C(=O)N2Cc3cc(OC)cc(OC)c3C(C)C=C2C12CCN(Cc1ccc(C)o1)CC2 (centres unmarked) [compound 819770],267
7,CCN1C(=O)N2Cc3cc(OC)cc(OC)c3C(C)C=C2C12CCN(Cc1occ(C)c1C)CC2 (centres unmarked) [compound 819771],205
8,CCN1C(=O)N2Cc3cc(OC)cc(OC)c3C(C)C=C2C12CCN(Cc1cccn1C)CC2 (centres unmarked) [compound 819772],103
9,CCN1C(=O)N2Cc3cc(OC)cc(OC)c3C(C)(C)C=C2C12CCN(Cc1ccc3nc[nH]c3c1)CC2 [compound 819777],110
10,COc1cc2c(c(OC)c1)C(C)C=C1N(C2)C(=O)N(CC2CC2)C12CCN(Cc1cc(C)cc(C)c1)CC2 (centres unmarked) [compound 819991],120
11,COc1cc2c(c(OC)c1)C(C)C=C1N(C2)C(=O)N(CC=C(C)C)C12CCN(Cc1cc(C)cc(C)c1)CC2 (centres unmarked) [compound 819995],330

# — patent publication US20090233906A1, “IMIDAZOAZEPINONE COMPOUNDS” (priority 2006, published 2009)
